Measured values taken from PubChem BioAssay (NCI).
Several values for one entry are separate records, joined by “and”; a condition that tells them apart may be missing. Identical values can stand only once.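 Method: 48-hour compound exposure of cells in 96-well plates, five concentrations, linear interpolation of endpoints. GI50 is the concentration that inhibits growth by half. TGI is the concentration that stops growth completely.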

Tests used:
Test in all cases: growth of human tumour cells (NCI), 48 h
[1] = test system: HCT-116 colon
[2] = test system: PC-3 prostate
[3] = test system: A549 NSCLC
[4] = test system: SK-MEL-2 melanoma
[5] = test system: HOP-92 NSCLC
[6] = test system: SF-268 CNS
[7] = test system: NCI-H226 lung
[8] = test system: U251 CNS
[9] = test system: 786-0 renal
[10] = test system: NCI-H522 lung

SMILES | GI50 [1] [µM] | TGI [1] | GI50 [2] [µM] | TGI [2] [µM] | GI50 [3] [µM] | TGI [3] | GI50 [4] [µM] | TGI [4] [µM] | GI50 [5] [µM] | TGI [5] | GI50 [6] [µM] | TGI [6] | GI50 [7] [µM] | TGI [7] [µM] | GI50 [8] [µM] | TGI [8] | GI50 [9] [µM] | TGI [9] | GI50 [10] [µM] | TGI [10] [µM]
Cc1ccc2c(C(C[N+](=O)[O-])c3ccco3)c(-c3ccccc3)[nH]c2c1 (stereo not given) | 19.8 | > 100 µM | 39.2 | > 100 | 48.3 | > 100 µM | 38.2 | > 100 | > 100 | > 100 µM | > 100 | > 100 µM | > 100 | > 100 | 46.2 | > 100 µM | 41.3 | > 100 µM | 3.92 | > 100
CCCCCCCCCCCCNC(=O)[C@H]1CSC(c2ccsc2)N1 (stereo not given in full) | 0.908 | 1.71 µM | 0.837 | 1.56 | 6.77 | 13.7 µM | 0.974 | 1.76 | 1.01 | 2.02 µM | 0.613 | 1.45 µM | 0.896 | 1.74 | 0.875 | 1.61 µM | 0.916 | 1.65 µM | 5.14 | 11.8
CCn1c(-c2nonc2N)nc2c(C#CC(C)(C)O)ncc(OC[C@@H]3CCCN3)c21 | 5.34 | 20.2 µM | 4.39 | > 25 | 6.96 | > 25 µM | 4.56 | 15 | 14.5 | > 25 µM | 7.84 | > 25 µM | 8.27 | > 24 | 3.03 | > 22 µM | 2.45 | > 25 µM | 3.1 | 6.71
C=C1C(=O)C23CC1CCC2C12CO[C@@]3(O)[C@@H](O)C1C(C)(C)C=CC2=O (stereo not given in full) | 2.9 | 1.01 µM and 9.03 µM | – | 7.53 | 16.3 | 7.63 µM and 34.3 µM | – | 1.99 | 2.92 | 1.46 µM and 5.41 µM | 3.11 | 6.77 µM and 11 µM | – | 12.5 | 16.7 | 5.15 µM and 33.3 µM | 1.75 | 1.24 µM and 3.59 µM | – | 4.09
Cc1nc2cc(Nc3nc(Nc4ccc(F)cc4)nc(-c4ccc(Cl)cc4)n3)ccc2n1Cc1ccccc1 | 5.04 | > 100 µM | 3.69 | > 100 | 6.18 | 36.9 µM | 4.07 | 41.1 | 1.74 | 23.7 µM | 10.1 | 97.3 µM | 11.4 | 37.2 | 12.5 | > 100 µM | 6.48 | 52.3 µM | 10.8 | 68.2
CCOC(=O)C(=Cc1c(-c2ccccc2)[nH]c2ccccc12)C(=O)OCC | 4.25 | 16 µM | 3.19 | 14.3 | 6.34 | 24.5 µM | 4.6 | 17.3 | 5.47 | > 29.8 µM | 7.46 | 28.5 µM | 11.3 | 34.7 | 4.91 | 35.6 µM | 11.7 | 37.2 µM | 3.32 | 11.8
COc1ccc(-c2nn3ncccc3c2-c2ccnc(Nc3cccc(C(F)(F)F)c3)n2)cc1 | 7.99 | > 25 µM | 7.25 | > 25 | 9.38 | > 25 µM | 8.11 | 21.3 | 3.03 | 16.1 µM | 9.86 | > 25 µM | 9.16 | > 25 | 11.6 | > 25 µM | 9.98 | > 25 µM | 6.39 | > 21.7
NCCn1c2c(c3ccccc3c1=O)C(=O)c1ccccc1-2 | 0.234 | 1.56 µM | 1.11 | 8.73 | – | 0.676 µM | 2.7 | 9.71 | 0.626 | 6.24 µM | 1.32 | 8.99 µM | 0.452 | 3.02 | 0.544 | 3.59 µM | 0.552 | 1.78 µM | 1.24 | > 21.7
COc1ccc(-c2conc2-c2ccccc2)cc1 | 0.318 | > 100 µM | 0.363 | > 100 | 0.502 | > 100 µM | 0.585 | > 100 | 4.58 | > 76.4 µM | 1.67 | > 100 µM | 2.42 | > 25.6 | 0.468 | > 100 µM | 1.28 | 53 µM | 0.17 | 15.9
Cc1cc2c(-c3nc4ccccn4c3NC34CC5CC(CC(C5)C3)C4)c(O)c(O)cc2c(O)c1-c1c(C)cc2c(-c3nc4ccccn4c3NC34CC5CC(CC(C5)C3)C4)c(O)c(O)cc2c1O | 0.0889 | 6.22 µM | 0.231 | 11.9 | 0.255 | > 25 µM | 0.802 | 6.25 | 0.616 | 1.88 µM | 0.239 | 6.78 µM | 0.929 | 5.98 | 0.106 | 3.3 µM | 0.932 | 5.09 µM | 0.613 | 3.54
COc1ccc2nc3cc(Cl)ccc3c(Nc3ccc(O)c(CN4CCCC4)c3)c2c1 | 1.41 | 2.92 µM | 3.28 | 11 | 1.99 | 4.06 µM | 1.99 | 3.77 | 3.92 | 16 µM | 3.79 | > 100 µM | 1.84 | 3.75 | 2.15 | 4.44 µM | 1.83 | 3.5 µM | 1.67 | 3.79
N#Cc1c(-c2ccc(Cl)cc2)csc1NC(=O)Nc1cccc(C(F)(F)F)c1 | 2.33 | 8.44 µM | 2.43 | 11.5 | 2.57 | 11.4 µM | 2 | 4.57 | 2.34 | 5.93 µM | 3.28 | 14.7 µM | 3.42 | 10.5 | 2.09 | 5.46 µM | 2 | 4.85 µM | 1.65 | 5.99
Cc1ccc(NCCNCC(O)CO)c2c(=O)c3ccccc3sc12 (stereo not given) | 1.05 | 2.3 µM | 1.58 | 3.22 | 0.849 | 2.38 µM | 1.77 | 3.49 | 1.98 | 7.81 µM | 1.81 | 3.96 µM | 1.65 | 3.44 | 1.67 | 3.51 µM | 1.37 | 2.79 µM | 1.91 | 4.09
COC(=O)C1=C(C(=O)OC)C(C(=O)OC)C(C(=O)OC)C(C(=O)OC)(C(=O)OC)C(C(=O)OC)=C1C(=O)OC (stereo not given) | – | 19.6 µM | – | 30.1 | – | 46.4 µM | – | 35.1 | – | 18.4 µM | – | 42.3 µM | – | 25.1 | – | 31 µM | – | 26.3 µM | – | 4.07
